Reference: PMC11031295 (ChemMedChem, 2024)
“Also recorded” adds a separate entry of the source.

Experiments:
[1] = biological target: T1, ERCC1/XPA protein-protein interaction (MBP-ERCC1 central domain / fluorescein-labeled XPA67-80 peptide) (Homo sapiens, UniProt P07992); experiment: Fluorescence polarization; assay type: binding
T1 sequence (P07992 96-214): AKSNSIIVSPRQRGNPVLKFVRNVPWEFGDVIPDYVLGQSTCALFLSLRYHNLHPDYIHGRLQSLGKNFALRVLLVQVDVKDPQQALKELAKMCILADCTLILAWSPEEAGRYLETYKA

[2] = biological target: T2, 15N-labeled human ERCC1 fragment containing residues 96-214 (Homo sapiens, UniProt P07992); experiment: Backbone chemical shift perturbation mapping by NMR; assay type: binding; conditions: 0.25 mM ERCC1, titration with compound 1, pH 7.5, 28 °C
T2 sequence (P07992 96-214): T1 sequence (P07992 96-214)

ERCC1 = conditions: binding pocket on ERCC1; cited from earlier work

EC50 [1] | Molecule | binding site on ERCC1 (in words) [2] | binding affinity to ERCC1 (in words) (ERCC1)
21 µM | Cc1cc(C)c(C#N)c(SCC(O)c2cccc([N+](=O)[O-])c2)n1 (stereo not drawn) [Compound 1, 2-[2-hydroxy-2-(3-nitrophenyl)ethyl]sulfanyl-4,6-dimethyl-pyridine-3-carbonitrile] | binds within the same site as the truncated XPA67-80 peptide; also recorded: binds to the same site as the truncated XPA 14-mer; also recorded: binds to the same central domain of ERCC1 as truncated XPA peptides | 
 | 14-mer peptide corresponding to residues 67-80 of XPA: truncated 14-mer peptide corresponding to residues 67-80 of XPA (KIIDTGGGFILEEE; UniProt P23025 67-80, looked up, fragment) |  | sub-micromolar affinity
